Here are results for 1 compound from patent publication US20170057838A1, “WATER CAPPING OF TAILINGS” (priority 2015, published 2017).

This series deals with One-year old yellow perch. The series is described as follows: yellow perch gill structure after three weeks exposure. The settings on record: added to extract solution. Format: in vivo. From the text: In an attempt to establish a causative link with chemical constituents of test pond water caps, laboratory tests examined the effect of exposure to a naphthenic acid extract from fresh WIP MFT release water on perch gill structure. […] Sulphate and naphthenic acids comprise two of the main constituents of concern in capping water and may act in concert to induce gill damage. The resulting reduced gill surface area likely led to restricted transport of both naphthenic acids and oxygen into the perch body. […] The gill aneurysms presumably occur because the outer layer of the gill has been damaged.

As to `O=S(=O)([O-])[O-].[Na+].[Na+]` [sodium sulphate], the “effect of addition to the naphthenic acid extract solution on gill toxicity” value was “exacerbated the expression of toxicity”.
